Measured values as given in publication PMC11887451, “Leveraging Immunogenic Cell Death to Enhance the Immune Response against Malignant Pleural Mesothelioma Tumors” (Journal of the American Chemical Society, 2025).

What was measured:
Conditions in all cases: exposure time 72 h
[1] = tested on: murine malignant mesothelioma cell line AB12; assay: MTT cytotoxicity assay, 72 h, AB12; assay type: cell-based, mouse
[2] = tested on: human malignant mesothelioma cell line JU77; assay: MTT cytotoxicity assay, 72 h, JU77; assay type: cell-based
[3] = tested on: human malignant mesothelioma cell line LO68; assay: MTT cytotoxicity assay, 72 h, LO68; assay type: cell-based
From the text: (§1) Human malignant mesothelioma cancer cell lines JU77 and LO68 were obtained from Cell Bank Australia (Children's Medical Research Institute, Westmead, Australia). Mouse malignant mesothelioma cancer cell line AB12, human nonmalignant mesothelioma cancer cell line Met5A (mesothelial cells), mouse macrophage cell line J774 and human monocytic cell line THP-1 were obtained from American Type Culture Collection (ATCC) (Rockville, MD, USA). Human malignant mesothelioma cell lines VMC23 (epithelial), Meso82 (sarcomatous), Meso92 (biphasic), were kindly provided by Prof. Walter Berger (Medical University of Vienna). All cells except for J774 were cultured in RPMI and J774 cells were cultured in DMEM. Both types of media were supplemented with 10% FBS and 1% penicillin-streptomycin (10,000 U/mL). Cells were grown in tissue culture flasks (75 cm2 and 25 cm2, SPL Life Sciences Co., Ltd., Korea). All cell lines were grown at 37 °C in a humidified atmosphere of 95% air and 5% CO 2 and passaged when they reached 80–90% confluency. All Au stock solutions were prepared in 1% DMSO in the respected medium, ensuring that cell viability was not inhibited.
(§2) The cytotoxicity of compounds was determined using an MTT colorimetric test. The cells were harvested from culture flasks by trypsinization and seeded into Cellstar 96 -well microculture plates (Greiner Bio -One) at the seeding density of 6000 cells per well (6 × 10^4 cells/mL). After
(§3) the cells were allowed to resume exponential growth for 16 h, they were exposed to drugs at
(§4) different concentrations in media for 72 h. The drugs were diluted in a complete medium at the desired concentration added to each well (100 μL) and serially diluted in other wells. After exposure for 72 h, the media was replaced with MTT in media (5 mg/mL, 100 μL/well) and
(§5) incubated for an additional 50 min. Subsequently, the medium was aspirated, and the purple formazan crystals formed in viable cells were dissolved in DMSO (100 μL/well). Optical densities were measured at 570 nm using a BioTek Synergy H1 microplate and MultiskanTM SkyHigh plate readers. The quantity of viable cells was expressed in terms of treated/control (T/C) values in comparison to untreated control cells, and 50% inhibitory concentrations (IC 50) were calculated from concentration-effect curves by interpolation. An evaluation was based on means from at least three independent experiments, each comprising three replicat es per
(§6) DMSO had not impact on the cell viability at the concentrations used.

[4] = tested on: patient-derived VMC23 cell line (epithelioid MPM); assay: MTT cytotoxicity assay, 72 h, VMC23; assay type: cell-based, human
From the text: as §1, §2, §3, §4, §5, §6

[5] = tested on: patient-derived Meso84 cell line (sarcomatoid MPM); assay: MTT cytotoxicity assay, 72 h, Meso84; assay type: cell-based, human
[6] = tested on: patient-derived Meso92 cell line (biphasic MPM); assay: MTT cytotoxicity assay, 72 h, Meso92; assay type: cell-based, human
[7] = tested on: human nonmalignant mesothelioma cell line Met5A; assay: MTT cytotoxicity assay, 72 h, Met5A; assay type: cell-based

SMILES	IC50 [1]	IC50 [2]	IC50 [3]	IC50 [4]	IC50 [5]	IC50 [6]	IC50 [7]
F[P-](F)(F)(F)(F)F.c1ccc(C[N+](Cc2ccccc2)=C2[S][Au-]3([S]2)[c]2ccccc2Nc2cccc[n+]23)cc1 (stereo not shown) [5D]	1100 nM	520 ± 80 nM	950 ± 130 nM	1300 ± 300 nM	1100 ± 300 nM	1100 ± 200 nM	1000 ± 200 nM
F[P-](F)(F)(F)(F)F.O=C1c2cccc[c]2[Au-]2([S]C(=[N+]3CCCCCC3)[S]2)[n+]2ccccc21 (stereo not shown) [3G]	350 ± 70 nM	1100 ± 200 nM	1200 ± 100 nM	1400 ± 200 nM	1800 ± 300 nM	1800 ± 200 nM	1500 ± 200 nM
COC1c2cccc[c]2[Au-]2([S]C(=[N+](C)C)[S]2)[n+]2ccccc21.F[P-](F)(F)(F)(F)F (racemic) [4A]	290 ± 40 nM	1400 ± 200 nM	1300 ± 300 nM	4700 ± 700 nM	190 ± 30 nM	160 ± 30 nM	720 ± 210 nM
C[N+](C)=C1[S][Au-]2([S]1)[c]1ccccc1-c1cccc[n+]12.F[P-](F)(F)(F)(F)F (stereo not shown) [1A]	88 ± 2 nM	1100 ± 300 nM	1000 ± 300 nM	630 ± 150 nM	1300 ± 300 nM	190 ± 40 nM	310 ± 70 nM
CC[N+](=C1[S][Au-]2([S]1)[c]1ccccc1Nc1cccc[n+]12)c1ccccc1.F[P-](F)(F)(F)(F)F (stereo not shown) [5E]	180 ± 10 nM	440 ± 130 nM	760 ± 180 nM	340 ± 40 nM	510 ± 100 nM	400 ± 50 nM	280 ± 80 nM
COC1c2cccc[c]2[Au-]2([S]C(=[N+]3CCCCCC3)[S]2)[n+]2ccccc21.F[P-](F)(F)(F)(F)F (racemic) [4G]	230 ± 60 nM	2400 ± 700 nM	1600 ± 200 nM	3500 ± 700 nM	1800 ± 400 nM	4800 ± 500 nM	2000 ± 300 nM
F[P-](F)(F)(F)(F)F.c1ccc(C[N+](Cc2ccccc2)=C2[S][Au-]3([S]2)[c]2ccccc2-c2cccc[n+]23)cc1 (stereo not shown) [1D]	1900 ± 200 nM	760 ± 100 nM	1500 ± 400 nM	1400 ± 200 nM	1400 ± 100 nM	1400 ± 300 nM	1300 ± 300 nM
CC[N+](CC)=C1[S][Au-]2([S]1)[c]1ccccc1-c1cccc[n+]12.F[P-](F)(F)(F)(F)F (stereo not shown) [1B]	190 ± 20 nM	890 ± 130 nM	550 ± 160 nM	1600 ± 300 nM	85 ± 7 nM	690 ± 210 nM	530 ± 70 nM
CC[N+](CC)=C1[S][Au-]2([S]1)[c]1ccccc1C(OC)c1cccc[n+]12.F[P-](F)(F)(F)(F)F (racemic) [4B]	330 ± 100 nM	4800 ± 700 nM	2900 ± 800 nM	7300 ± 1800 nM	1700 ± 500 nM	6300 ± 1000 nM	430 ± 130 nM
COC1c2cccc[c]2[Au-]2([S]C(=[N+]3CCCC3)[S]2)[n+]2ccccc21.F[P-](F)(F)(F)(F)F (racemic) [4F]	320 ± 50 nM	3300 ± 800 nM	1400 ± 200 nM	2900 ± 300 nM	340 ± 100 nM	1700 ± 500 nM	740 ± 90 nM
C[N+](C)=C1[S][Au-]2([S]1)[c]1ccccc1Cc1cccc[n+]12.F[P-](F)(F)(F)(F)F (stereo not shown) [2A]	170 ± 20 nM	2800 ± 200 nM	1200 nM	8400 ± 1000 nM	220 ± 60 nM	260 ± 40 nM	430 ± 80 nM
F[P-](F)(F)(F)(F)F.c1cc[c]2c(c1)-c1cccc[n+]1[Au-]21[S]C(=[N+]2CCCC2)[S]1 (stereo not shown) [1F]	200 ± 60 nM	1500 ± 100 nM	1700 ± 300 nM	930 ± 280 nM	190 ± 40 nM	220 ± 60 nM	180 ± 50 nM
C[N+](C)=C1[S][Au-]2([S]1)[c]1ccccc1C(=O)c1cccc[n+]12.F[P-](F)(F)(F)(F)F (stereo not shown) [3A]	140 ± 40 nM	1900 ± 500 nM	990 ± 190 nM	640 ± 60 nM	1200 ± 200 nM	530 ± 110 nM	440 ± 130 nM
